Here are results for two compounds from patent US7803910B2, “Soluble CD164 polypeptides” (Merck Serono S.A., priority 2005, dated 2010).

The test system of data set [1] is Balb/c mice. Briefly: K/BxN serum transfer model of arthritis. It is filed as in vivo. As to conditions: 10 mg/kg sc once daily, 3 days per week. The method, then: This is a passive model of arthritis, induced by serum transfer of K/B×N mice (spontaneously develop arthritis) to naïve mice. This model depends on macrophages and neutrophils. Inflammatory cytokines such as TNFα and IL-1β play an important role in the development of the disease.
Eight week old Balb/c mice (Charles River) received by iv route 150 μl of K/B×N serum (Charles McKay, Australia), containing high level of auto-antibodies against glucose-6-phosphate isomerase. They evolved severe arthritis assessed with a clinical score (0-12) evaluating the presence of swelling, erythema, edema, joint rigidity and ankylosis. The final score was the sum of scores on individual paws. The swelling of ankle, fore paw and hind paw was measure using a caliper. The clinical score and the swelling were determined every day. Fourteen days after the induction of the disease blood was sampled to determine osteocalcin and the legs were removed and fixed in formalin for histology.
Enbrel® (10 mg/kg, sc, once daily, 3 days a week) was used as reference compound.

The subject of data set [2] is female mice (Balb/c). Briefly: Dextran Sodium Sulfate-induced ulcerative colitis model. It is filed as in vivo. The method, then:
The DSS model of colitis mimics some aspects of the human affection such as macrophage infiltration and up regulation of inflammatory cytokines (i.e. TNFα, IL-1p, IL-6) in the colon mucosa.
Ulcerative colitis (UC) was induced in female mice (Balb/c, 20-22 g, Elevage Janvier) by Dextran Sodium Sulfate (DSS 4%) administered in drinking water (oral route). The mice had free access to DSS during 7 days. Body weight was determined daily. The severity of the UC was assessed by a clinical score estimating the constituency of the stool (0=firm, 1=loose, 2=diarrhea) and the presence of blood (0=no blood, 1=occult blood, 2=gross rectal bleeding). Seven days after the induction of the disease, the animals were sacrificed. The length and the weight of the colon were determined and the ratio Weight/Length/100 g body weight was calculated. The spleen weight was also determined. Blood was sampled to determine serum amyloid protein (SAA) using a specific ELISA.
Test substances or vehicle (PBS/0.02% BSA) was administered at days 3, 4, 5 and 6 after the induction of the UC. Enbrel® (1 mg/kg, sc) was used as reference compound. Three studies were performed as per the following table:
In Study 3, the content of IL-1β in the colon was also measured.

For data set [3], the system named is LPS-induced TNF-α release. As to the kind of experiment: LPS induced TNF-α release animal model (Example 10). In kind it is in vivo, C3H/HeN mice. As to conditions: 0.1 mg/kg, sc, 15 minutes prior to LPS; plasma 90 minutes after LPS; p<0.001.
Method: LPS(O111:B4; SIGMA) is injected (0.3 mg/kg, ip) in C3H/HeN mice (Charles River, France). Ninety minutes later blood is sampled and plasma TNF-α is determined using an ELISA kit (R&D). The CD164 variant to be tested and dexamethasone are diluted in PBS and injected (Sf-CD164 at 0.03, 0.1 and 0.3 mg/kg, iv; or dexamethasone at 0.1 mg/kg, sc) 15 minutes prior to LPS administration.
Data set [4] deals with peritoneal recruitment of macrophages. As to the kind of experiment: Thioglycollate-induced leukocyte peritoneal recruitment assay. Particulars: 1 mg/kg. In kind it is in vivo, C3H mice. The method, then:
The effect of a sCD164 variant on immune cells recruitment was tested using the thioglycollate-induced leukocyte peritoneal recruitment assay. In this example the capacity of ssCD164-Fc (SEQ ID NO: 16) to decrease monocytes/macrophage recruitment was evaluated.
Forty-eight hours after the challenge, the animals were sacrificed and the lavage of the peritoneal cavity was conducted using 2×5 ml PBS-1 mM EDTA (+4° C.). After centrifugation (10 min at 3000 rpm), the pellet was resuspended in 1 ml PBS. The peritoneal cells were counted using a Beckman/Coulter counter. Dexamethasone (1 mg/kg), the anti-inflammatory compound was used as reference positive control.

Data set [5] has as its system C3H mice. Briefly: Concanavalin A-induced hepatitis in mice. In kind it is in vivo. As to conditions: 0.3 mg/kg, sc. An excerpt: Several sCD164 variants have been shown in vitro to inhibit secretion of certain cytokines by ConA-stimulated human peripheral blood mononuclear cells (PBMC), see Examples 2 and 3 above. Since cytokines play a crucial role in T-cell induced ConA induced liver hepatitis (Seino et al. 2001, Kusters, 1996; Toyonaga et al. 1994), the present model was used to further test the sCD164 variants.
Eighteen hours later, the animals were sacrificed and the blood was sampled. Serum levels of transaminases (alanine transaminase (ALAT), aspartate aminotransferase (ASAT)) were determined in serum using a clinical analyzer (Hitachi). Dexamethasone (0.3 mg/kg, sc) was used as reference.

Where [6] appears, read: Study 1, reference 1 mg/kg, ip (so in the source).

With Enbrel® [reference compound], in data set [1] (Study 1), the “decrease of clinical score” value came to 25%, the “decrease of paw swelling” value came out at 36% and the “decrease of serum osteocalcin” value came to 86%. Moreover, in data set [1] (Study 2), the “decrease of clinical score” value is on record as 31%, the “decrease of paw swelling” value was found to be 38% and the “decrease of serum osteocalcin” value is reported as 64%. In data set [2] (setting [6]), the body weight loss result is recorded as “not prevented”; the “colon reduction, length” value is recorded as −24%; the “colon reduction, ratio weight/length” value is given as −29%; the “increase in serum amyloid protein A” value is listed as −37%. In addition, in data set [2] (setting [6]), the splenomegaly result is “not prevented”. Moreover, the clinical score in data set [2] (Study 1, reference 1 mg/kg, ip (so in the source), day 6) was −23%. Besides, in data set [2] (Study 2, 1 mg/kg, sc), the “colon reduction, length” value is −17%; the “colon reduction, ratio weight/length” value was −31%; the “increase in serum amyloid protein A” value was −36%; the splenomegaly result was “not improved”. In addition, the clinical score in data set [2] (Study 2, 1 mg/kg, sc, day 5) is reported as −21%. In data set [2] (Study 3, 1 mg/kg, sc), the “colon reduction, length” value is reported as −29%; the “colon reduction, ratio weight/length” value is reported as −33%; the “content of IL-1β in colon” value was “trended to reduce”; the “serum amyloid A protein” value was “trended to reduce”. For the same compound, the splenomegaly in data set [2] (Study 3, 1 mg/kg, sc) was −27%. In data set [2] (Study 3, 1 mg/kg, sc, day 5), the body weight loss was −83% and the clinical score is listed as −38%. Also, the clinical score in data set [2] (Study 3, 1 mg/kg, sc, day 7) is given as −30%.

As for `C[C@@H]1C[C@H]2[C@@H]3CCC4=CC(=O)C=C[C@]4(C)[C@@]3(F)[C@@H](O)C[C@]2(C)[C@@]1(O)C(=O)CO` [Dexamethasone, reference compound], the “inhibition of LPS-induced TNF-α release” value in data set [3] worked out at 72%. Moreover, the results for the “reduction of peritoneal recruitment of macrophages” value in data set [4] (iv) and in data set [4] (sc) were 94% and 61%, respectively. Further, the “reduction of the level of serum transaminases” value in data set [5] stood at 96%.
